The supplement of paper PMC10307832

Assays:
Test in all cases: relative viability (nuclei count vs DMSO), 5 days (fraction); higher = more cells survive
Alpelisib + Vorinostat = compound: Cc1nc(NC(=O)N2CCC[C@H]2C(N)=O)sc1-c1ccnc(C(C)(C)C(F)(F)F)c1 [Alpelisib] + O=C(CCCCCCC(=O)Nc1ccccc1)NO [Vorinostat] (partner 1 µM)
Summary of the method: (§1)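 Relative viability was taken as the ratio of nuclei in treated wells to nuclei in vehicle wells. Lung cancer cell lines in 1536-well plates received compounds by pin tool one day after seeding, either one drug alone or a fixed anchor-drug dose plus five library-drug doses (not always all listed) in √10 steps. Nuclei were counted on 4× images after 5 days of treatment, and values are medians of duplicate plates.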

Alpelisib + Luminespib = compound: Cc1nc(NC(=O)N2CCC[C@H]2C(N)=O)sc1-c1ccnc(C(C)(C)C(F)(F)F)c1 [Alpelisib] + CCNC(=O)c1noc(-c2cc(C(C)C)c(O)cc2O)c1-c1ccc(CN2CCOCC2)cc1 [Luminespib] (partner 0.01 µM)
Summary of the method: as §1

OSI-027 + AZD7762 = compound: COc1cccc2cc(-c3nc([C@H]4CC[C@H](C(=O)O)CC4)n4ncnc(N)c34)[nH]c12 [OSI-027] + NC(=O)Nc1cc(-c2cccc(F)c2)sc1C(=O)N[C@H]1CCCNC1 [AZD7762] (partner 0.2 µM)
Summary of the method: as §1

Vemurafenib + Linsitinib = compound: CCCS(=O)(=O)Nc1ccc(F)c(C(=O)c2c[nH]c3ncc(-c4ccc(Cl)cc4)cc23)c1F [Vemurafenib] + C[C@]1(O)C[C@@H](c2nc(-c3ccc4ccc(-c5ccccc5)nc4c3)c3c(N)nccn32)C1 [Linsitinib] (partner 1 µM)
Summary of the method: as §1

Row | Cell Line | relative viability (Alpelisib + Vorinostat; first compound 0.04 µM) | relative viability (Alpelisib + Vorinostat; first compound 0.1265 µM) | relative viability (Alpelisib + Vorinostat; first compound 0.4 µM) | relative viability (Alpelisib + Vorinostat; first compound 1.265 µM) | relative viability (Alpelisib + Vorinostat; first compound 4 µM) | relative viability (Alpelisib + Luminespib; first compound 0.04 µM) | relative viability (Alpelisib + Luminespib; first compound 0.1265 µM) | relative viability (Alpelisib + Luminespib; first compound 0.4 µM) | relative viability (Alpelisib + Luminespib; first compound 1.265 µM) | relative viability (Alpelisib + Luminespib; first compound 4 µM) | relative viability (OSI-027 + AZD7762; first compound 0.01 µM) | relative viability (OSI-027 + AZD7762; first compound 0.03162 µM) | relative viability (OSI-027 + AZD7762; first compound 0.1 µM) | relative viability (OSI-027 + AZD7762; first compound 0.3162 µM) | relative viability (OSI-027 + AZD7762; first compound 1 µM) | relative viability (Vemurafenib + Linsitinib; first compound 0.03162 µM) | relative viability (Vemurafenib + Linsitinib; first compound 0.1 µM) | relative viability (Vemurafenib + Linsitinib; first compound 0.3162 µM) | relative viability (Vemurafenib + Linsitinib; first compound 1 µM)
1 | NCI-H1437 | 0.886 | 0.886 | 0.963 | 0.734 | 0.692 | 1.16 | 1.09 | 1.2 | 1.07 | 1.26 | 1.11 | 1.02 | 1.14 | 1 | 0.566 | 0.972 | 0.959 | 0.918 | 0.871
2 | NCI-H1651 | 0.534 | 0.619 | 0.552 | 0.517 | 0.504 | 0.78 | 1.05 | 1 | 0.78 | 0.666 | 0.471 | 0.415 | 0.425 | 0.465 | 0.417 | 0.869 | 1.09 | 1.02 | 1.09
3 | NCI-H1666 | 0.978 | 1.1 | 1.07 | 0.876 | 0.727 | 0.973 | 1.03 | 1.12 | 0.921 | 0.965 | 0.837 | 0.707 | 0.763 | 0.766 | 0.585 | 0.853 | – | 0.922 | 0.841
4 | NCI-H1734 | 0.726 | 0.686 | 0.822 | 0.642 | 0.375 | 0.19 | – | 0.18 | 0.183 | 0.167 | 0.619 | 0.532 | 0.537 | 0.408 | 0.251 | 0.859 | 0.847 | 0.759 | 0.808
5 | NCI-H1755 | 0.774 | 0.71 | 0.873 | 0.605 | 0.632 | 0.352 | 0.415 | 0.418 | 0.42 | 0.395 | 0.442 | 0.432 | 0.574 | 0.507 | 0.396 | 0.946 | 0.889 | 0.978 | 0.91
6 | NCI-H1793 | 0.62 | 0.977 | 0.839 | 0.598 | 0.325 | 0.194 | 0.177 | 0.154 | 0.165 | 0.179 | 0.409 | 0.435 | 0.399 | 0.36 | 0.239 | 0.877 | – | 0.893 | 0.897
7 | NCI-H1915 | 0.543 | 0.543 | 0.577 | 0.448 | 0.509 | 0.738 | 0.725 | 0.829 | 0.643 | 0.766 | 0.728 | 0.792 | 0.72 | 0.592 | 0.653 | 1.05 | 1 | 1.05 | 1.04
8 | NCI-H1944 | 0.538 | 0.554 | 0.597 | 0.399 | 0.326 | 0.644 | 0.739 | 0.706 | 0.456 | 0.275 | 0.611 | 0.43 | 0.648 | 0.56 | 0.371 | 1.17 | 0.872 | 1.33 | 1.15
9 | NCI-H1975 | 0.696 | 0.674 | 0.61 | 0.426 | 0.402 | 0.227 | 0.204 | 0.199 | 0.184 | 0.155 | 0.708 | 0.697 | 0.545 | 0.609 | 0.591 | 1 | 0.962 | 0.725 | 1.05
10 | NCI-H1993 | 0.751 | 0.815 | 0.909 | 0.596 | 0.64 | 0.751 | 0.744 | 0.758 | 0.476 | 0.503 | 0.777 | 0.728 | 0.606 | 0.542 | 0.416 | 0.668 | – | 0.882 | 0.746
11 | NCI-H2085 | 0.801 | 0.686 | 0.888 | 0.754 | 0.633 | 0.504 | 0.419 | 0.46 | 0.415 | 0.364 | 0.978 | 0.925 | 0.953 | 0.97 | 0.61 | 0.862 | 0.626 | 0.797 | 1.01
12 | NCI-H2087 | 0.808 | 0.669 | 0.583 | 0.647 | 0.853 | 0.176 | 0.198 | 0.174 | 0.17 | 0.159 | 1.32 | 1.1 | 1.4 | 1.1 | 0.929 | 0.882 | 0.94 | – | 0.868
13 | NCI-H2126 | 0.717 | 0.565 | 0.67 | 0.5 | 0.457 | 0.946 | 0.848 | 0.854 | 0.776 | 0.667 | 0.975 | 0.954 | 0.998 | 0.868 | 0.819 | 0.804 | 0.699 | 0.757 | 0.681
14 | NCI-H2347 | 0.524 | 0.598 | 0.766 | 0.555 | 0.49 | 0.476 | 0.632 | 0.626 | 0.503 | 0.522 | 0.683 | 0.733 | 0.756 | 0.595 | 0.299 | 0.941 | 1.01 | 0.76 | 0.964
15 | NCI-H2405 | 1.13 | 1.06 | 1.06 | 0.682 | 0.59 | 0.736 | 0.463 | 0.658 | 0.486 | 0.418 | 0.701 | 0.836 | 0.699 | 0.598 | 0.376 | 0.952 | 0.776 | – | 0.983
16 | NCI-H3122 | 0.783 | 0.985 | 1.28 | 1.01 | 0.491 | 0.077 | 0.0664 | 0.0978 | 0.0788 | 0.0851 | 1.06 | 1.09 | 0.995 | 0.946 | 0.486 | 1 | 0.895 | 1.01 | 1.13
17 | PC-3 [JPC-3] | 0.877 | 0.699 | 1.12 | 0.638 | 0.514 | 0.731 | 0.567 | 0.739 | 0.687 | 0.622 | 0.778 | 0.703 | 0.521 | 0.42 | 0.505 | 0.909 | – | 1.02 | 1.03
